US20240270821A1, “GIP/GLP1/GCG TRI-RECEPTOR AGONISTS AND USES THEREOF” (priority 2023, published 2024)
Like-named read-outs stand apart in the source and are kept apart here.

Legend:
Assay type in all cases: cell-based
hGcgR = hGcgR (Homo sapiens, UniProt P47871); test: Functional cAMP activation in the presence of 0.1% casein (no HSA); conditions: read-out: Relative cAMP EC50, hGcgR;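 also: intracellular cAMP rise after 30 min at 37 °C, read by HTRF against a cAMP standard curve, scaled from buffer only (0%) to maximal control ligand response (100%)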
Sequence of hGcgR (P47871 26-477): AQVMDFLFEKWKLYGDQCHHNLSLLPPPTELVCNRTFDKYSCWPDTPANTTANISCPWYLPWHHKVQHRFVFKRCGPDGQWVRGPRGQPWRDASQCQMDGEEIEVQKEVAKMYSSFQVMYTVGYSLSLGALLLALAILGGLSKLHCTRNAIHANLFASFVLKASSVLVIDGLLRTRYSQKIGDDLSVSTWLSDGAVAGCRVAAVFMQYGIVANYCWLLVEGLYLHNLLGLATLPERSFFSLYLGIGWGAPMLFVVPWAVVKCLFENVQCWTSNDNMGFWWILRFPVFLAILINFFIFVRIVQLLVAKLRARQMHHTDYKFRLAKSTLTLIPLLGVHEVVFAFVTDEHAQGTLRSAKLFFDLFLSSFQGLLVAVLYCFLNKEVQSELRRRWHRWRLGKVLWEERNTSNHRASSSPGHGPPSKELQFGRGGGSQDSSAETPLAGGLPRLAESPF

hGIPR [1] = target: T1, hGIPR (Homo sapiens, UniProt P48546); test: Functional cAMP activity in the presence of 1% HSA; conditions: read-out: cAMP Rel EC50, hGIPR
T1 sequence (P48546 22-466): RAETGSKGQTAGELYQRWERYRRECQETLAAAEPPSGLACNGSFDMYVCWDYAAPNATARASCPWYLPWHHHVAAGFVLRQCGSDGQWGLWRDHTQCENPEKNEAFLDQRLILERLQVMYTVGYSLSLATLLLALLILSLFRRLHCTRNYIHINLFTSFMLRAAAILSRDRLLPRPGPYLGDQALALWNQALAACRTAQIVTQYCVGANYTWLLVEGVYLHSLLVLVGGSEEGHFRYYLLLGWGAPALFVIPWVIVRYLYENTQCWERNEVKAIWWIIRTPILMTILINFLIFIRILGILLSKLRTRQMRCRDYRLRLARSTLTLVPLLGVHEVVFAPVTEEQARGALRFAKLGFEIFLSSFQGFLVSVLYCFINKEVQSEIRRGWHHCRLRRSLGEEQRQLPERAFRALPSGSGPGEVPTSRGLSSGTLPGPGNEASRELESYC

hGLP-1R [2] = target: T2, hGLP-1R (Homo sapiens, UniProt P43220); test: Functional cAMP activation in the presence of 0.1% casein (no HSA); conditions: read-out: Relative cAMP EC50, hGLP-1R;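 also: intracellular cAMP rise after 30 min at 37 °C read by HTRF, normalized between buffer only (0%) and maximal control ligand (100%), four-parameter variable-slope fit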
T2 sequence (P43220 24-463): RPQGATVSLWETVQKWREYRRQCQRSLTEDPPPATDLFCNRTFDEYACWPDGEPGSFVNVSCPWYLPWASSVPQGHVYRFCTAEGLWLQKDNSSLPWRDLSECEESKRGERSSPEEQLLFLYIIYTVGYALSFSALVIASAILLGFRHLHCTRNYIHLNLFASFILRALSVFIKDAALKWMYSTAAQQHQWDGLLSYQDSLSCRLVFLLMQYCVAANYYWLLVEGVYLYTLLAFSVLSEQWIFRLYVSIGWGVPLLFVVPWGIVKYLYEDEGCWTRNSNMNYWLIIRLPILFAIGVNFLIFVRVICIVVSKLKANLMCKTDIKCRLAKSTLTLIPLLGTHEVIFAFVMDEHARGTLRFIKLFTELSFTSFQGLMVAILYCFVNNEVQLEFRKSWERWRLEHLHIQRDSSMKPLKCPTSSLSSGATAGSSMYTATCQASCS

hGLP-1R [3] = target: T2, hGLP-1R; test: Functional cAMP activity in the presence of 1% HSA; conditions: read-out: cAMP Rel EC50, hGLP-1R
human GcgR = human GcgR (Homo sapiens, UniProt P47871); test: Functional cAMP activity in the presence of 1% HSA; conditions: read-out: cAMP Rel EC50, hGcgR
Sequence of human GcgR (P47871 26-477): as the sequence (P47871 26-477) above

hGIPR [4] = target: T1, hGIPR; test: Functional cAMP activation in the presence of 0.1% casein (no HSA); conditions: read-out: Relative cAMP EC50, hGIPR;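 also: intracellular cAMP rise after 30 min at 37 °C read by HTRF against a standard curve, scaled between buffer alone (0%) and top control ligand concentration (100%), four-parameter fit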
[5] = in the presence of 0.1% casein (no HSA), geometric mean of relative EC50
[6] = HEK-293 clonal cell line, 1% HSA, geometric mean of relative EC50

Row | SMILES | EC50 (hGcgR) | EC50 (hGIPR [1]) | EC50 (hGLP-1R [2]) | EC50 (hGLP-1R [3]) | EC50 (human GcgR) | EC50 (hGIPR [4]) | EC50 (hGcgR; [5]) | EC50 (hGIPR [1]; [6]) | EC50 (hGLP-1R [2]; [5]) | EC50 (hGLP-1R [3]; [6]) | EC50 (human GcgR; [6]) | EC50 (hGIPR [4]; [5])
1 | CC[C@H](C)[C@H](NC(=O)[C@H](Cc1ccccc1)NC(=O)[C@H](CCCN)NC(=O)C(C)(C)NC(=O)[C@H](CCC(N)=O)NC(=O)[C@H](C)NC(=O)[C@H](CCCCNC(=O)[C@H](CCC(=O)O)NC(=O)CC[C@H](NC(=O)CCCCCCCCCCCCCCCCC(=O)O)C(=O)O)NC(=O)[C@H](CCCN)NC(=O)[C@H](CC(=O)O)NC(=O)[C@H](CC(C)C)NC(=O)[C@](C)(CC(C)C)NC(=O)[C@@H](NC(=O)[C@](C)(CO)NC(=O)[C@H](Cc1ccncc1)NC(=O)[C@H](CC(=O)O)NC(=O)[C@H](CO)NC(=O)[C@@H](NC(=O)[C@](C)(Cc1ccccc1F)NC(=O)[C@@H](NC(=O)CNC(=O)[C@H](CCC(N)=O)NC(=O)C(C)(C)NC(=O)[C@@H](N)Cc1ccc(O)cc1)[C@@H](C)O)[C@@H](C)O)[C@@H](C)CC)C(=O)N[C@H](CCC(=O)O)C(=O)N[C@@](C)(Cc1ccc(O)cc1)C(=O)N[C@@H](CC(C)C)C(=O)N[C@@H](CCC(N)=O)C(=O)N[C@@H](CCC(=O)O)C(=O)NCC(=O)NCC(=O)N1CCC[C@H]1C(=O)N[C@@H](CO)C(=O)N[C@@H](CO)C(=O)NCC(=O)N[C@@H](CCC(=O)O)C(=O)N1CCC[C@H]1C(=O)N1CCC[C@H]1C(=O)N1CCC[C@H]1C(=O)N[C@@H](CCC(=O)O)C(=O)NCC(=O)N[C@H](C(=O)N[C@@H](CCC(=O)O)C(=O)N[C@@H](CCC(=O)O)C(N)=O)[C@@H](C)O [Example 593] | 6.57 nM | 2.71 nM | 0.495 nM | 35.3 nM | 591 nM | 0.0484 nM |  |  |  |  |  | 
2 | CC[C@H](C)[C@H](NC(=O)[C@H](Cc1ccccc1)NC(=O)[C@H](CCCN)NC(=O)C(C)(C)NC(=O)[C@H](CCC(N)=O)NC(=O)[C@H](C)NC(=O)[C@H](CCCCNC(=O)[C@H](CCC(=O)O)NC(=O)CC[C@H](NC(=O)CCCCCCCCCCCCCCCCC(=O)O)C(=O)O)NC(=O)[C@H](CCCN)NC(=O)[C@H](CC(=O)O)NC(=O)[C@H](CC(C)C)NC(=O)[C@](C)(CC(C)C)NC(=O)[C@@H](NC(=O)[C@](C)(CO)NC(=O)[C@H](Cc1ccncc1)NC(=O)[C@H](CC(=O)O)NC(=O)[C@H](CO)NC(=O)[C@@H](NC(=O)[C@](C)(Cc1ccccc1F)NC(=O)[C@@H](NC(=O)CNC(=O)[C@H](CCC(N)=O)NC(=O)C(C)(C)NC(=O)[C@@H](N)Cc1ccc(O)cc1)[C@@H](C)O)[C@@H](C)O)[C@@H](C)CC)C(=O)N[C@H](CCC(=O)O)C(=O)N[C@@](C)(Cc1ccc(O)cc1)C(=O)N[C@@H](CC(C)C)C(=O)N[C@@H](CCC(N)=O)C(=O)N[C@@H](CCC(=O)O)C(=O)NCC(=O)NCC(=O)N1CCC[C@H]1C(=O)N[C@@H](CO)C(=O)N[C@@H](CO)C(=O)NCC(=O)N[C@@H](CCC(=O)O)C(=O)N1CCC[C@H]1C(=O)N1CCC[C@H]1C(=O)N1CCC[C@H]1C(=O)N[C@@H](CCC(=O)O)C(=O)NCC(=O)N[C@H](C(=O)N[C@@H](CCC(=O)O)C(=O)N[C@@H](CCC(=O)O)C(=O)N[C@@H](CCC(=O)O)C(N)=O)[C@@H](C)O [Example 594] | 8.35 nM | 3.32 nM | 0.561 nM | 49.1 nM | 570 nM | 0.0541 nM |  |  |  |  |  | 
3 | CC[C@H](C)[C@H](NC(=O)[C@H](Cc1ccccc1)NC(=O)[C@H](CCCN)NC(=O)C(C)(C)NC(=O)[C@H](CCC(N)=O)NC(=O)[C@H](C)NC(=O)[C@H](CCCCNC(=O)[C@@H](CCC(=O)O)NC(=O)CC[C@H](NC(=O)CCCCCCCCCCCCCCCCC(=O)O)C(=O)O)NC(=O)[C@H](CCCN)NC(=O)[C@H](CC(=O)O)NC(=O)[C@H](CC(C)C)NC(=O)[C@](C)(CC(C)C)NC(=O)[C@@H](NC(=O)[C@](C)(CO)NC(=O)[C@H](Cc1ccncc1)NC(=O)[C@H](CC(=O)O)NC(=O)[C@H](CO)NC(=O)[C@@H](NC(=O)[C@](C)(Cc1ccccc1F)NC(=O)[C@@H](NC(=O)CNC(=O)[C@H](CCC(N)=O)NC(=O)C(C)(C)NC(=O)[C@@H](N)Cc1ccc(O)cc1)[C@@H](C)O)[C@@H](C)O)[C@@H](C)CC)C(=O)N[C@H](CCC(=O)O)C(=O)N[C@@](C)(Cc1ccc(O)cc1)C(=O)N[C@@H](CC(C)C)C(=O)N[C@@H](CCC(N)=O)C(=O)N[C@@H](CCC(=O)O)C(=O)NCC(=O)NCC(=O)N1CCC[C@H]1C(=O)N[C@@H](CO)C(=O)N[C@@H](CO)C(=O)NCC(=O)N[C@@H](CCC(=O)O)C(=O)N1CCC[C@H]1C(=O)N1CCC[C@H]1C(=O)N1CCC[C@H]1C(=O)N[C@@H](CCC(=O)O)C(=O)NCC(=O)N[C@H](C(=O)N[C@@H](CCC(=O)O)C(=O)N[C@@H](CCC(=O)O)C(=O)N[C@@H](CCC(=O)O)C(N)=O)[C@@H](C)O [Example 596] | 5.71 nM | 1.98 nM | 0.592 nM | 36.6 nM | 385 nM | 0.0455 nM |  |  |  |  |  | 
4 | CC[C@H](C)[C@H](NC(=O)[C@H](Cc1ccccc1)NC(=O)[C@H](CCCN)NC(=O)C(C)(C)NC(=O)[C@H](CCC(N)=O)NC(=O)[C@H](C)NC(=O)[C@H](CCCCNC(=O)CC[C@H](NC(=O)CNC(=O)CCCCCCCCCCCCCCCCC(=O)O)C(=O)O)NC(=O)[C@H](CCCN)NC(=O)[C@H](CC(=O)O)NC(=O)[C@H](CC(C)C)NC(=O)[C@](C)(CC(C)C)NC(=O)[C@@H](NC(=O)[C@](C)(CO)NC(=O)[C@H](Cc1ccncc1)NC(=O)[C@H](CC(=O)O)NC(=O)[C@H](CO)NC(=O)[C@@H](NC(=O)[C@](C)(Cc1ccccc1F)NC(=O)[C@@H](NC(=O)CNC(=O)[C@H](CCC(N)=O)NC(=O)C(C)(C)NC(=O)[C@@H](N)Cc1ccc(O)cc1)[C@@H](C)O)[C@@H](C)O)[C@@H](C)CC)C(=O)N[C@H](CCC(=O)O)C(=O)N[C@@](C)(Cc1ccc(O)cc1)C(=O)N[C@@H](CC(C)C)C(=O)N[C@@H](CCC(N)=O)C(=O)N[C@@H](CCC(=O)O)C(=O)NCC(=O)NCC(=O)N1CCC[C@H]1C(=O)N[C@@H](CO)C(=O)N[C@@H](CO)C(=O)NCC(=O)N[C@@H](CCC(=O)O)C(=O)N1CCC[C@H]1C(=O)N1CCC[C@H]1C(=O)N1CCC[C@H]1C(=O)N[C@@H](CCC(=O)O)C(=O)NCC(=O)N[C@H](C(=O)N[C@@H](CCC(=O)O)C(=O)N[C@@H](CCC(=O)O)C(N)=O)[C@@H](C)O [Example 658] |  |  |  |  |  |  | 1.05 nM | 12 nM | 0.34 nM | 106 nM | 376 nM | 0.0379 nM
5 | CC[C@H](C)[C@H](NC(=O)[C@H](Cc1ccccc1)NC(=O)[C@H](C)NC(=O)C(C)(C)NC(=O)[C@H](CCC(N)=O)NC(=O)[C@H](C)NC(=O)[C@H](CCCCNC(=O)CC[C@H](NC(=O)CC[C@H](NC(=O)CCCCCCCCCCCCCCCCC(=O)O)C(=O)O)C(=O)O)NC(=O)[C@H](CCCCN)NC(=O)[C@H](CC(=O)O)NC(=O)[C@H](CC(C)C)NC(=O)[C@H](CC(C)C)NC(=O)[C@@H](NC(=O)[C@H](CO)NC(=O)[C@H](Cc1ccncc1)NC(=O)[C@H](CC(=O)O)NC(=O)[C@H](CO)NC(=O)[C@@H](NC(=O)[C@](C)(Cc1ccccc1F)NC(=O)[C@@H](NC(=O)CNC(=O)[C@H](CCC(N)=O)NC(=O)C(C)(C)NC(=O)[C@@H](N)Cc1ccc(O)cc1)[C@@H](C)O)[C@@H](C)O)[C@@H](C)CC)C(=O)N[C@@H](CCC(=O)O)C(=O)N[C@@H](Cc1ccc(O)cc1)C(=O)N[C@@H](CC(C)C)C(=O)N[C@@H](CCC(=O)O)C(=O)N[C@@H](CCC(=O)O)C(=O)NCC(=O)NCC(=O)N1CCC[C@H]1C(=O)N[C@@H](CO)C(=O)N[C@@H](CO)C(=O)NCC(=O)N[C@@H](C)C(=O)N1CCC[C@H]1C(=O)N1CCC[C@H]1C(=O)N1CCC[C@H]1C(=O)N[C@@H](CCC(=O)O)C(=O)NCC(=O)N[C@H](C(=O)NCC(=O)N[C@@H](CCC(=O)O)C(N)=O)[C@@H](C)O [Example 660] | 7.38 nM | 4.64 nM | 1.27 nM | 76.9 nM | 455 nM | 0.0646 nM |  |  |  |  |  | 
